Measurements published in US9096624B2 (OSI Pharmaceuticals, LLC, priority 2009, dated 2015).
Structures can show the parent of a compound that is named as a salt.

Biological target: FAK (Homo sapiens, UniProt Q05397)
Assay: biochemical

FAK, sequence (Q05397 whole entry): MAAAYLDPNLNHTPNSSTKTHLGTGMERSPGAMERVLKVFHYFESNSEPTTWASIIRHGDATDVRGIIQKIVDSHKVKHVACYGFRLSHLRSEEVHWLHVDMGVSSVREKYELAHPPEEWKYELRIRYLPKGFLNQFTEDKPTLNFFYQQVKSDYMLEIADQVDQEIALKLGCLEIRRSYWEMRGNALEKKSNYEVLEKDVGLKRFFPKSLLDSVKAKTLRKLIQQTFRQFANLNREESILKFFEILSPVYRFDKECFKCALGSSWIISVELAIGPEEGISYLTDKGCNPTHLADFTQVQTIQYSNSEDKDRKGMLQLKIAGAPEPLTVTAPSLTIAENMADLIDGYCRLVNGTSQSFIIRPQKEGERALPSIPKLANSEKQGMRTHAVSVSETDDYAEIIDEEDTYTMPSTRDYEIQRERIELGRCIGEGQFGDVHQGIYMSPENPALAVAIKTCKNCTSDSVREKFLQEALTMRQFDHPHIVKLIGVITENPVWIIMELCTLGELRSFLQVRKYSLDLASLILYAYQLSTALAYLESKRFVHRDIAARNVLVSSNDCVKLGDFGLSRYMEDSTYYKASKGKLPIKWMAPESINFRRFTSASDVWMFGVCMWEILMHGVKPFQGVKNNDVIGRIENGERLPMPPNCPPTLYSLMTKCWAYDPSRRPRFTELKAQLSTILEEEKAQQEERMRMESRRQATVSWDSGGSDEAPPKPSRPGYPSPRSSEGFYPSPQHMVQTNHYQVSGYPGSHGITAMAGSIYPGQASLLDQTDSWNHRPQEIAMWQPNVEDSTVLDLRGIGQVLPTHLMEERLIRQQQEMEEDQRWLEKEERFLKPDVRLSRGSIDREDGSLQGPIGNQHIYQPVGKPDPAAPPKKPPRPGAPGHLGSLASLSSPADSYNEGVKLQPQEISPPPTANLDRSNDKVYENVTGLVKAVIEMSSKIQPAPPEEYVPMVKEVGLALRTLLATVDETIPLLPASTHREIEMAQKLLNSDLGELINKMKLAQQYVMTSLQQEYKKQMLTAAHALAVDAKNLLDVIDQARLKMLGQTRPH

SMILES	IC50
CCOP(=O)(Cc1ccc(Nc2ncc(C(F)(F)F)c(Nc3ccc(-c4cnn(CC(C)C)c4)cc3C(=O)NC)n2)cc1)OCC [Example 134, Diethyl (4-{[4-({2-(methylcarbamoyl)-4-[1-(2-methylpropyl)-1H-pyrazol-4-yl]phenyl}amino)-5-(trifluoromethyl)pyrimidin-2-yl]amino}benzyl)phosphonate]	< 1 µM
CCOC(c1ccc(Nc2ncc(C(F)(F)F)c(Nc3ccccc3C(=O)NC)n2)cc1)P(=O)(OCC)OCC (stereo not shown) [Example 159, Diethyl [ethoxy(4-{[4-{[2-(methylcarbamoyl)phenyl]amino}-5-(trifluoromethyl)pyrimidin-2-yl]amino}phenyl)methyl]phosphonate]	< 1 µM
CCOP(=O)(Cc1ccc(Nc2ncc(C(F)(F)F)c(Nc3ccc(-c4cnn(C[C@H](O)CO)c4)cc3C(=O)NC)n2)cc1)OCC [Example 135, Diethyl (4-{[4-{[4-{1-[(2S)-2,3-dihydroxypropyl]-1H-pyrazol-4-yl}-2-(methylcarbamoyl)phenyl]amino}-5-(trifluoromethyl)pyrimidin-2-yl]amino}benzyl)phosphonate]	< 1 µM
CCOP(=O)(Cc1ccc(Nc2ncc(C(F)(F)F)c(Nc3ccccc3C(=O)N(C)C)n2)cc1)OCC [Example 111, Diethyl (4-{[4-{[2-(dimethylcarbamoyl)phenyl]amino}-5-(trifluoromethyl)pyrimidin-2-yl]amino}benzyl)phosphonate]	< 1 µM
CCOP(=O)(Cc1ccc(Nc2ncc(C(F)(F)F)c(Nc3ccc(-c4cnn(C5CC(O)C5)c4)cc3C(=O)NC)n2)cc1)OCC (stereo not shown) [Example 136, Diethyl (4-{[4-({4-[1-(3-hydroxycyclobutyl)-1H-pyrazol-4-yl]-2-(methylcarbamoyl)phenyl}amino)-5-(trifluoromethyl)pyrimidin-2-yl]amino}benzyl)phosphonate]	< 1 µM
CCOP(=O)(OCC)C(O)c1ccc(Nc2ncc(C(F)(F)F)c(Nc3ccccc3C(=O)NC)n2)cc1 (stereo not shown) [Example 133, Diethyl [hydroxy(4-{[4-{[2-(methylcarbamoyl)phenyl]amino}-5-(trifluoromethyl)pyrimidin-2-yl]amino}phenyl)methyl]phosphonate trifluoroacetate]	< 1 µM
CCOP(=O)(Cc1cc(OC)c(Nc2ncc(C(F)(F)F)c(Nc3ccccc3C(=O)NC)n2)cc1F)OCC [Example 130, Diethyl (2-fluoro-5-methoxy-4-{[4-{[2-(methylcarbamoyl)phenyl]amino}-5-(trifluoromethyl)pyrimidin-2-yl]amino}benzyl)phosphonate]	< 1 µM
CCOP(=O)(Cc1ccc(Nc2ncc(C(F)(F)F)c(Nc3ccc(C#N)cc3C(=O)NC)n2)cc1)OCC [Example 150, Diethyl (4-{[4-{[4-cyano-2-(methylcarbamoyl)phenyl]amino}-5-(trifluoromethyl)pyrimidin-2-yl]amino}benzyl)phosphonate]	< 1 µM
CCOP(=O)(Cc1ccc(Nc2ncc(C(F)(F)F)c(Nc3ccc([C@H]4CC[C@@H](N5CCN(C)CC5)CC4)c4c3C(=O)N(C)C4)n2)c(OC)c1)OCC [Example 95, Diethyl (3-methoxy-4-{[4-({2-methyl-7-[cis-4-(4-methylpiperazin-1-yl)cyclohexyl]-3-oxo-2,3-dihydro-1H-isoindol-4-yl}amino)-5-(trifluoromethyl)pyrimidin-2-yl]amino}benzyl)phosphonate]	< 1 µM
CCOP(=O)(Cc1ccc(Nc2ncc(C(F)(F)F)c(Nc3ccc(N4CCN(CC(=O)OC(C)(C)C)CC4)c4c3C(=O)N(C)C4)n2)cc1)OCC [Example 225, tert-Butyl [4-(7-{[2-({4-[(diethoxyphosphoryl)methyl]phenyl}amino)-5-(trifluoromethyl)pyrimidin-4-yl]amino}-2-methyl-1-oxo-2,3-dihydro-1H-isoindol-4-yl)piperazin-1-yl]acetate]	< 1 µM
CCNC(=O)c1ccccc1Nc1nc(Nc2ccc(CP(=O)(OCC)OCC)cc2OC)ncc1C(F)(F)F [Example 153, Diethyl (4-{[4-{[2-(ethylcarbamoyl)phenyl]amino}-5-(trifluoromethyl)pyrimidin-2-yl]amino}-3-methoxybenzyl)phosphonate]	< 1 µM
CCOP(=O)(O)Cc1ccc(Nc2ncc(C(F)(F)F)c(Nc3cccc4c3C(=O)N(C)C4)n2)c(OC)c1 [Example 120, Ethyl hydrogen [3-methoxy-4-({4-[(2-methyl-3-oxo-2,3-dihydro-1H-isoindol-4-yl)amino]-5-(trifluoromethyl)pyrimidin-2-yl}amino)benzyl]phosphonate]	< 1 µM
CCOP(=O)(Cc1ccc(Nc2ncc(C(F)(F)F)c(Nc3ccccc3C(=O)N3CCN(C)CC3)n2)c(OC)c1)OCC [Example 179, Diethyl (3-methoxy-4-{[4-({2-[(4-methylpiperazin-1-yl)carbonyl]phenyl}amino)-5-(trifluoromethyl)pyrimidin-2-yl]amino}benzyl)phosphonate]	< 1 µM
CCOP(=O)(Cc1ccc(Nc2ncc(C(F)(F)F)c(Nc3ccc([C@H]4CC[C@H](O)CC4)cc3C(=O)N(C)C)n2)cc1)OCC [Example 173, Diethyl (4-{[4-{[2-(dimethylcarbamoyl)-4-(trans-4-hydroxycyclohexyl)phenyl]amino}-5-(trifluoromethyl)pyrimidin-2-yl]amino}benzyl)phosphonate]	< 1 µM
CCOP(=O)(Cc1ccc(Nc2ncc(C(F)(F)F)c(Nc3ccc(-c4cnn(CCOC)c4)c4c3C(=O)N(C)C4)n2)cc1)OCC [Example 97, Diethyl (4-{[4-({7-[1-(2-methoxyethyl)-1H-pyrazol-4-yl]-2-methyl-3-oxo-2,3-dihydro-1H-isoindol-4-yl}amino)-5-(trifluoromethyl)pyrimidin-2-yl]amino}benzyl)phosphonate]	< 1 µM
CCOP(=O)(OCC)C(OC)c1ccc(Nc2ncc(C(F)(F)F)c(Nc3ccccc3C(=O)NC)n2)cc1 (stereo not shown) [Example 160, Diethyl [methoxy(4-{[4-{[2-(methylcarbamoyl)phenyl]amino}-5-(trifluoromethyl)pyrimidin-2-yl]amino}phenyl)methyl]phosphonate]	< 1 µM
CCCn1cc(-c2ccc(Nc3nc(Nc4ccc(CP(=O)(OCC)OCC)cc4)ncc3C(F)(F)F)c(C(=O)NC)c2)cn1 [Example 126, Diethyl (4-{[4-{[2-(methylcarbamoyl)-4-(1-propyl-1H-pyrazol-4-yl)phenyl]amino}-5-(trifluoromethyl)pyrimidin-2-yl]amino}benzyl)phosphonate]	< 1 µM
CCNC(=O)c1ccccc1Nc1nc(Nc2ccc(CP(=O)(OCC)OCC)cc2)ncc1C(F)(F)F [Example 152, Diethyl (4-{[4-{[2-(ethylcarbamoyl)phenyl]amino}-5-(trifluoromethyl)pyrimidin-2-yl]amino}benzyl)phosphonate]	< 1 µM
CCOP(=O)(Cc1ccc(Nc2ncc(C(F)(F)F)c(Nc3ccc([C@H]4CC[C@H](O)CC4)c4c3C(=O)N(C)C4)n2)c(OC)c1)OCC [Example 93, Diethyl (4-{[4-{[7-(trans-4-hydroxycyclohexyl)-2-methyl-3-oxo-2,3-dihydro-1H-isoindol-4-yl]amino}-5-(trifluoromethyl)pyrimidin-2-yl]amino}-3-methoxybenzyl) phosphonate hydrochloride]	< 1 µM
CCOP(=O)(Cc1ccc(Nc2ncc(C(F)(F)F)c(Nc3ccc(-c4cnn(CC(C)(C)O)c4)cc3C(=O)NC)n2)cc1)OCC [Example 127]	< 1 µM
CCOP(=O)(Cc1ccc(Nc2ncc(C(F)(F)F)c(Nc3ccc(Br)cc3C(=O)NC)n2)cc1)OCC [Example 106, Diethyl (4-{[4-{[4-bromo-2-(methylcarbamoyl)phenyl]amino}-5-(trifluoromethyl)pyrimidin-2-yl]amino}benzyl)phosphonate]	< 1 µM
CCOP(=O)(Cc1ccc(Nc2ncc(C(F)(F)F)c(Nc3ccc(-c4nn[nH]n4)c4c3C(=O)N(C)C4)n2)cc1)OCC [Example 181, Diethyl (4-{[4-{[2-methyl-3-oxo-7-(2H-tetrazol-5-yl)-2,3-dihydro-1H-isoindol-4-yl]amino}-5-(trifluoromethyl)pyrimidin-2-yl]amino}benzyl)phosphonate]	< 1 µM
CCOP(=O)(Cc1cc(F)c(Nc2ncc(C(F)(F)F)c(Nc3ccccc3C(=O)NC)n2)c(OC)c1)OCC [Example 146, Diethyl (3-fluoro-5-methoxy-4-{[4-{[2-(methylcarbamoyl)phenyl]amino}-5-(trifluoromethyl)pyrimidin-2-yl]amino}benzyl)phosphonate]	< 1 µM
CCOP(=O)(Cc1ccc(Nc2ncc(C(F)(F)F)c(Nc3ccccc3C(=O)NC)n2)c(Br)c1)OCC [Example 108, Diethyl (3-bromo-4-{[4-{[2-(methylcarbamoyl)phenyl]amino}-5-(trifluoromethyl)pyrimidin-2-yl]amino}benzyl) phosphonate]	< 1 µM
CCOP(=O)(Cc1ccc(Nc2ncc(C(F)(F)F)c(Nc3ccc(-c4cnn(CCN(CC)CC)c4)cc3C(=O)NC)n2)cc1)OCC [Example 180, Diethyl (4-{[4-{[4-{1-[2-(diethylamino)ethyl]-1H-pyrazol-4-yl}-2-(methylcarbamoyl)phenyl]amino}-5-(trifluoromethyl)pyrimidin-2-yl]amino}benzyl)phosphonate]	< 1 µM
CCOP(C)(=O)Cc1ccc(Nc2ncc(C(F)(F)F)c(Nc3ccc([C@H]4CC[C@@](C)(O)CC4)c4c3C(=O)N(C)C4)n2)c(OC)c1 (stereo partly drawn) [Example 200, Ethyl (4-{[4-{[7-(cis-4-hydroxy-4-methylcyclohexyl)-2-methyl-3-oxo-2,3-dihydro-1H-isoindol-4-yl]amino}-5-(trifluoromethyl)pyrimidin-2-yl]amino}-3-methoxybenzyl)methylphosphinate]	< 1 µM
CCOP(=O)(Cc1ccc(Nc2ncc(C(F)(F)F)c(Nc3ccc(C4=CCNCC4)c4c3C(=O)N(C)C4)n2)cc1)OCC [Example 246, Diethyl (4-{[4-{[2-methyl-3-oxo-7-(1,2,3,6-tetrahydropyridin-4-yl)-2,3-dihydro-1H-isoindol-4-yl]amino}-5-(trifluoromethyl)pyrimidin-2-yl]amino}benzyl)phosphonate]	< 1 µM
CCOP(=O)(Cc1ccc(Nc2ncc(C(F)(F)F)c(Nc3ccc(OC(C)C)c4c3C(=O)N(C)C4)n2)c(OC)c1)OCC [Example 211, Diethyl (3-methoxy-4-{[4-{[2-methyl-3-oxo-7-(propan-2-yloxy)-2,3-dihydro-1H-isoindol-4-yl]amino}-5-(trifluoromethyl)pyrimidin-2-yl]amino}benzyl)phosphonate]	< 1 µM
